Converted amounts (≈) assume the structure as drawn.
Assays:
[1] = Stability in rat liver microsomes assessed as compound remaining after 30 mins; format: ADME, microsome; conditions: read-out: Stability
[2] = biological target: T1, Receptor-type tyrosine-protein kinase FLT3 (Homo sapiens, UniProt P36888); assay: biochemical; format: cell-based
T1 sequence (P36888 whole entry): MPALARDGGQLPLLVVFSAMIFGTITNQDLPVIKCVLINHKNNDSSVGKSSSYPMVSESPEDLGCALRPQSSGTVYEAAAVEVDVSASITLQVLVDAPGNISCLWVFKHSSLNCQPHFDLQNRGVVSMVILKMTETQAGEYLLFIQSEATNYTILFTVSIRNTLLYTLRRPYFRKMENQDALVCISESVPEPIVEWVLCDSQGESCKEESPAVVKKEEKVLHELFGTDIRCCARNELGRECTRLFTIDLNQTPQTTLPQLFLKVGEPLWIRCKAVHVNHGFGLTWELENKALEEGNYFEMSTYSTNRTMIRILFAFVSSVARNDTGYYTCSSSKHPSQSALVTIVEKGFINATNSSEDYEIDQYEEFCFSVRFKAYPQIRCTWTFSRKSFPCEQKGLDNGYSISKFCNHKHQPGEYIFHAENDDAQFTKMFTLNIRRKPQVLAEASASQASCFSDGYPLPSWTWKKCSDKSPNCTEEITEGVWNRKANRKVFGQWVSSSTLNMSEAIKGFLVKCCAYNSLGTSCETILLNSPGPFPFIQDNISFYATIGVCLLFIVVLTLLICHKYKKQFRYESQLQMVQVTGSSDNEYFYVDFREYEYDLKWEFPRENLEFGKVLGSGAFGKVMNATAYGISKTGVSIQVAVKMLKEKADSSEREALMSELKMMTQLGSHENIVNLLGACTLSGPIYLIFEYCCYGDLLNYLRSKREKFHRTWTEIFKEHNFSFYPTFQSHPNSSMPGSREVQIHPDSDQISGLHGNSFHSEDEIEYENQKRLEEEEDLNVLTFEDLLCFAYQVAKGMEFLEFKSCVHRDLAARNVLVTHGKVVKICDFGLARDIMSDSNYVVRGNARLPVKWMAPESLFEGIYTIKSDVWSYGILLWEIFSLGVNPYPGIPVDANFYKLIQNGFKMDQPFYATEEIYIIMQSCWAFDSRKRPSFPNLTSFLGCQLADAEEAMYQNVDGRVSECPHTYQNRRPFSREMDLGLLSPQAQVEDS
Description: Inhibition of N-terminal GST-tagged recombinant human wild-type FLT3 (564 to end residues) expressed in baculovirus infected sf21 cells using Abltide as substrate in presence of [gamma33P]ATP after 10 mins by scintillation counting method

[3] = Solubility of the compound in distilled water kept in shaker for 1 hr; format: physicochemical
[4] = Stability in human liver microsomes assessed as compound remaining after 30 mins; format: ADME, microsome; conditions: read-out: Stability
[5] = biological target: Receptor-type tyrosine-protein kinase FLT3 (Homo sapiens, UniProt P36888, D835Y); assay: biochemical; format: cell-based
Description: Inhibition of N-terminal GST-tagged recombinant human wild-type FLT3 (564 to end residues) D835Y mutant expressed in baculovirus infected sf21 cells using Abltide as substrate in presence of [gamma33P]ATP after 10 mins by scintillation counting method

[6] = Solubility of the compound in phosphate buffered saline kept in shaker for 1 hr; format: physicochemical
K562 = assay: cells; conditions: Homo sapiens
Description: Growth inhibition of FLT3 null human K562 cells by CCK8 assay

THP-1 = assay: cells; conditions: Homo sapiens
Description: Growth inhibition of human THP1 cells harboring wild-type FLT3 by XTT assay

HL-60 = assay: cells; conditions: Homo sapiens
Description: Growth inhibition of human HL60 cells harboring wild-type FLT3 by CCK8 assay

MV4-11 = assay: cells; conditions: Homo sapiens
Description: Growth inhibition of human MV4-11 cells harboring FLT3-ITD mutant by XTT assay

Compound | remaining at 0.5 h [1] [%] | IC50 [2] [nM] | solubility at 1 h [3] [µM] | remaining at 0.5 h [4] [%] | IC50 [5] [nM] | solubility at 1 h [6] [µM] | GI50 (K562) [nM] | GI50 (THP-1) [nM] | GI50 (HL-60) [nM] | GI50 (MV4-11) [nM]
CC1=CC(=O)N(Nc2nc(-c3ccc[nH]3)nc3sc(C)cc23)C1=O | 39.1 | 135 | 10.1 (≈ 3.42 µg/mL) | 40.4 | 117 | 0.59 (≈ 0.2 µg/mL) | – | – | – | –
CC1=CC(=O)N(Nc2nc(-c3ccco3)nc3sc(C)c(C)c23)C1=O | 26.2 | 100 | 24.6 (≈ 8.73 µg/mL) | 10.9 | 102 | 12.4 (≈ 4.38 µg/mL) | – | – | – | –
CC1=CC(=O)N(Nc2nc(-c3ccc(F)cc3)nc3sc(C)cc23)C1=O | 8.58 | 274 | < 0.14 | 42.6 | 266 | < 0.14 | – | – | – | –
CC1=CC(=O)N(Nc2nc(-c3ccc[nH]3)nc3sc(C)c(C)c23)C1=O | 39.7 | 79.3 | 0.87 (≈ 0.307 µg/mL) | 37.1 | 89.2 | 0.16 (≈ 0.0565 µg/mL) | 1100 | 339 | > 10000 | 452
CC1=CC(=O)N(Nc2nc(-c3nccs3)nc3sc(C)cc23)C1=O | 14.5 | 33.4 | 1.43 (≈ 0.511 µg/mL) | 27.5 | 33.9 | 2.8 (≈ 1 µg/mL) | 1280 | 961 | > 10000 | 1350
CC1=CC(=O)N(Nc2nc(-c3cccs3)nc3sc(C)cc23)C1=O | 32.6 | – | 5.84 (≈ 2.08 µg/mL) | 58.8 | – | 0.36 (≈ 0.128 µg/mL) | 2570 | – | > 10000 | –
CC1=CC(=O)N(Nc2nc(-c3nccs3)nc3sc(C)c(C)c23)C1=O | 17.7 | 16 | 25.3 (≈ 9.41 µg/mL) | 45.7 | 21.4 | 36.8 (≈ 13.7 µg/mL) | 532 | 141 | > 10000 | 216
CC1=CC(=O)N(Nc2nc(-c3ccco3)nc3sc(C)cc23)C1=O | 34.8 | 171 | 40.6 (≈ 13.8 µg/mL) | 35.1 | 129 | 28.5 (≈ 9.69 µg/mL) | – | – | – | –
CC1=CC(=O)N(Nc2nc(-c3cccs3)nc3sc(C)c(C)c23)C1=O | 22.7 | – | 1.28 (≈ 0.474 µg/mL) | 32.4 | – | 1.04 (≈ 0.385 µg/mL) | 102 | – | > 10000 | –
CC1=CC(=O)N(Nc2nc(-c3ccc(F)cc3)nc3sc(C)c(C)c23)C1=O | 19.6 | 211 | < 0.14 | 20.7 | 172 | < 0.14 | – | – | – | –
CNCCOc1ccc(-c2sc3nc(-c4cccs4)nc(NN4C(=O)C=C(C)C4=O)c3c2C)cc1 | – | 11.1 | – | – | – | – | – | – | – | –

From ChEMBL document CHEMBL4000222, “Synthetic strategy for increasing solubility of potential FLT3 inhibitor thieno[2,3-d]pyrimidine derivatives through structural modifications at the C2 and C6 positions” (Bioorg Med Chem Lett, 2017)
